This is an account of results in PMC10888562 (International Journal of Molecular Sciences, 2024).

Molecules are shown by their SMILES. “And” between values parts separate entries of the source, which are not always exact repeats. Equal values may be shown once. Read-outs that look alike come from different tables or passages of the source.

The subject of one series is HT29 colon. Also noted: method as in PMID 36142383, PMID 37173934, PMID 36296713. To be noted: cited from earlier work.
The subject of a further series is A2780 ovarian. Also noted: method as in PMID 36142383, PMID 37173934, PMID 36296713. To be noted: cited from earlier work.
Series [1] deals with HT29 colon cells. As to the kind of experiment: TMRE mitochondrial membrane potential (MtMP) assay. Type of series: cell-based, human. The note with it: GI50 drug concentration (FCCP 20 μM). The procedure: This was achieved by determining if the overproduction of ROS induced by these complexes impacts mitochondrial activity by altering MtMP. Briefly, there is evidence showing a strong correlation between increased levels of ROS and mitochondrial impairment. […] The MtMP changes recorded are measured as RFU. […] To investigate the MtMP changes in HT29 treated cells, a TMRE-MtMP Assay Kit (Abcam, Cambridge, MA, USA) was used, as previously described. In 96-well plates, 25,000 cells/mL of HT29 colon cells in DMEM were seeded. Cells were treated with a GI50 drug concentration for each complex. At 24, 48 or 72 h, cells were washed with PBS and stained with tetramethylrhodamine, ethyl ester (TMRE) (1 μM) and incubated for 30 min. TMRE was then removed, and cells were then re-washed with PBS (0.2% BSA), after which phenol red free media was added. The plates were directly scanned to measure fluorescence (expressed as RFU), using the Glo-Max®-Multimode microplate reader (Promega Corporation, Alexandra, VIC, Australia) at an excitation/emission of 549/575 nm. For the positive control, 20 μM carbonyl cyanide 4-(trifluoromethoxy) phenylhydrazone (FCCP)) was added to the cells and incubated for 10 min. The cells were washed with PBS (0.2% BSA) and stained with TMRE (1 μM) for 30 min; this was removed, and phenol red free media was added, and the final solution was scanned as mentioned above.

For the next series, the system named is MCF-7 breast. The arrangement: method as in PMID 36142383, PMID 37173934, PMID 36296713. The note with it: cited from earlier work.
The subject of a further series is U87 glioblastoma. The arrangement: method as in PMID 36142383, PMID 37173934, PMID 36296713. The note with it: cited from earlier work.
The test system of the next series is A431 skin. The arrangement: method as in PMID 36142383, PMID 37173934, PMID 36296713. The note with it: cited from earlier work.
The subject of a further series is H460 lung. Also noted: method as in PMID 36142383, PMID 37173934, PMID 36296713. The note with it: cited from earlier work.
Series [2] relates to multiple human cell lines. The arrangement: method as in PMID 36142383, PMID 37173934, PMID 36296713. To be noted: average over all cell lines; cited from earlier work.
For the next series, the system named is BE2-C neuroblastoma. The arrangement: method as in PMID 36142383, PMID 37173934, PMID 36296713. To be noted: cited from earlier work.
The test system of series [3] is non-tumour-derived MCF10A breast line. The arrangement: method as in PMID 36142383, PMID 37173934, PMID 36296713. The note with it: cited from earlier work.
Series [4] concerns cisplatin-resistant ADDP ovarian variant. The arrangement: method as in PMID 36142383, PMID 37173934, PMID 36296713. The note with it: cited from earlier work.
Series [5] has as its system HT29 colon cells. Also noted: method as in PMID 36142383, PMID 37173934, PMID 36296713. The note with it: cited from earlier work.
Another series concerns SJ-G2 glioblastoma. The arrangement: method as in PMID 36142383, PMID 37173934, PMID 36296713. To be noted: cited from earlier work.
The test system of another series is Du145 prostate. The arrangement: method as in PMID 36142383, PMID 37173934, PMID 36296713. To be noted: cited from earlier work.
A further series deals with MIA pancreas. Also noted: method as in PMID 36142383, PMID 37173934, PMID 36296713. To be noted: cited from earlier work.
Series [6] concerns histone deacetylase (HDAC). Briefly: Fluorometric HDAC activity assay on extracts of treated HT29 cells. It is filed as cell-based, human. The note with it: HT29 colon cells treated 72 h at GI50 concentration; lower RFU = decline in HDAC activity; HT29 extract control 5154 ± 40. As to the method: All values are expressed as RFU.
To study the HDAC activity in HT29 treated cells, a Fluorometric HDAC Activity Assay Kit ab156064 (Abcam, Cambridge, MA, USA) was used and all sample preparations were made based on the manufacturer’s protocol. A total of 10^6 cells/mL of HT29 cells were seeded in DMEM with serum deprivation for 18 h to synchronise the cells. […] Cells were then washed with cold PBS and resuspended in lysis buffer (10 mM Tris HCl (pH 7.5), 10 mM NaCl, 15 mM MgCl2, 250 mM sucrose, 0.5% NP-40 and 0.1 mM EGTA) and lysed on ice for 20 min. Cells were centrifuged through 4 mL of sucrose cushion (30% sucrose, 10mM Tris HCl (pH 7.5), 10 mM NaCl and 3mM MgCl2) at 1300× g for 10 min at 4 °C. Supernatant was discarded and the pellet was washed and resuspended in extraction buffer (50 mM HEPES-KOH (pH 7.5), 420 mM NaCl, 0.5 mM EDTA 2Na, 0.1 mM EGTA and 10% glycerol) and then sonicated for 30 s. Nuclei were lysed for 30 min on ice and centrifuged at 20,000× g for 30 min. The supernatant was collected, and the samples were prepared for the fluorometric assay according to the manufacturer’s protocol (Histone Deacetylase (HDAC) Activity Assay Fluorometric Kit ab156064, Abcam). The changes in the relative fluorescence intensity (expressed as RFU) were recorded each minute over 60 min using the Glo-Max®-Multimode microplate reader (Promega Corporation, Alexandra, VIC, Australia) at an excitation/emission of 355/460 nm.

For another series, the system named is peritoneal carcinoma. Also noted: method as in PMID 20535526. To be noted: BD-IX rats with peritoneal carcinoma; cited from earlier work.
The next series deals with prostate tumour. The arrangement: method as in PMID 18997969. The note with it: mice with prostate tumour; cited from earlier work.

The GI50 is the concentration that inhibits growth by half. With `Cc1c(C)c2cccnc2c2ncccc12.N[C@H]1CCCC[C@@H]1N.[OH][Pt+2][OH]` [56MESS(IV)(OH)2], the GI50 is 36 ± 7 nM in the series on HT29 colon; 59 ± 7 nM in the series with A2780 ovarian; 480 ± 140 nM in the series on MCF-7 breast; 190 ± 23 nM in the series on U87 glioblastoma; 120 ± 22 nM with A431 skin; 190 ± 150 nM in the series with H460 lung. The GI50 in [2] was 151 ± 50 nM; with BE2-C neuroblastoma, 240 ± 22 nM; in series [3], 61 ± 7 nM; in series [4] it was 170 ± 120 nM; with SJ-G2 glioblastoma it was 210 ± 45 nM; with Du145 prostate it was 15 ± 2.6 nM. For the same compound, in the series on MIA pancreas, the GI50 is 43 ± 2.5 nM. Besides, the “MtMP Changes” value stood at 291 ± 9 RFU in the series with HT29 colon cells [1] (24 h, control 542 ± 4); 221 ± 5 RFU with HT29 colon cells [1] (48 h, control 507 ± 11); 188 ± 5 RFU with HT29 colon cells [1] (72 h, control 449 ± 10). Further, the “ROS Production” value in the series with HT29 colon cells [5] (24 h) is 259 ± 3 RFU; in the series on HT29 colon cells [5] (48 h) it was 356 ± 11 RFU; with HT29 colon cells [5] (72 h) it was 438 ± 7 RFU. In addition, the “HDAC Inhibition at 72 h” value in series [6] worked out at 3011 ± 23 RFU.

For the compound `Cc1c(C)c2cccnc2c2ncccc12.N[C@H]1CCCC[C@@H]1N.[Pt]` [56MESS, [Pt^II(5,6-Me2phen)(SS-DACH)]^2+], the GI50 with HT29 colon is 10 ± 1.6 nM; with A2780 ovarian it was 76 ± 57 nM; with MCF-7 breast it was 93 ± 44 nM; in the series with U87 glioblastoma, 35 ± 6.4 nM; with A431 skin, 29 ± 1 nM; in the series on H460 lung, 21 ± 2 nM. The GI50 in [2] was 36 ± 10 nM; with BE2-C neuroblastoma, 59 ± 4 nM; in [3] it was 16 ± 1 nM; in series [4], 13 ± 2 nM; with SJ-G2 glioblastoma, 66 ± 22 nM; in the series on Du145 prostate it was 4.6 ± 0.4 nM. The GI50 in the series with MIA pancreas was 13 ± 2 nM. Besides, the “MtMP Changes” value in the series with HT29 colon cells [1] (24 h, control 542 ± 4) was found to be 277 ± 5 RFU; in the series with HT29 colon cells [1] (48 h, control 507 ± 11) it was 211 ± 7 RFU; with HT29 colon cells [1] (72 h, control 449 ± 10), 151 ± 7 RFU. The “ROS Production” value is given as 240 ± 5 RFU in the series on HT29 colon cells [5] (24 h), 218 ± 3 RFU in the series on HT29 colon cells [5] (48 h) and 255 ± 4 RFU in the series with HT29 colon cells [5] (72 h). Besides, in the series with peritoneal carcinoma, the nephrotoxicity entry was “caused nephrotoxicity”. Besides, the tumour suppression result with peritoneal carcinoma was “ineffective in suppressing tumour”. In addition, the “HDAC Inhibition at 72 h” value in [6] was 1847 RFU and 1847 ± 42 RFU.

Regarding `N[C@H]1CCCC[C@@H]1N.[OH][Pt+2][OH].c1cnc2c(c1)ccc1cccnc12` [PHENSS(IV)(OH)2], the GI50 is 710 ± 300 nM in the series with HT29 colon; 800 ± 84 nM in the series with A2780 ovarian; 16000 nM in the series with MCF-7 breast; 4900 ± 610 nM in the series with U87 glioblastoma; 4300 ± 530 nM in the series on A431 skin; 1700 ± 200 nM with H460 lung. Further, the GI50 in series [2] was 3320 ± 880 nM; with BE2-C neuroblastoma it was 3000 ± 530 nM; in series [3], 1700 ± 200 nM; in series [4], 1300 ± 350 nM; in the series with SJ-G2 glioblastoma it was 1700 ± 350 nM; with Du145 prostate, 310 ± 92 nM. In addition, the GI50 in the series on MIA pancreas is 3400 ± 2200 nM. In addition, the “MtMP Changes” value with HT29 colon cells [1] (24 h, control 542 ± 4) turned out to be 328 ± 7 RFU; in the series with HT29 colon cells [1] (48 h, control 507 ± 11) it was 314 ± 6 RFU; in the series on HT29 colon cells [1] (72 h, control 449 ± 10) it was 234 ± 11 RFU. Further, the “ROS Production” value is 144 ± 5 RFU in the series with HT29 colon cells [5] (24 h), 273 ± 4 RFU in the series on HT29 colon cells [5] (48 h) and 303 ± 1 RFU in the series on HT29 colon cells [5] (72 h). In addition, the “HDAC Inhibition at 72 h” value in series [6] stood at 4107 ± 19 RFU.

For `N[C@H]1CCCC[C@@H]1N.[Pt+2].c1cnc2c(c1)ccc1cccnc12` [PHENSS, [Pt^II(phen)(SS-DACH)]^2+], the GI50 with HT29 colon was 160 ± 45 nM; in the series with A2780 ovarian, 230 ± 30 nM; in the series with MCF-7 breast it was 1500 ± 500 nM; with U87 glioblastoma, 980 ± 270 nM; in the series with A431 skin, 480 ± 170 nM; in the series on H460 lung, 360 ± 35 nM. The GI50 is 434 ± 110 nM in series [2]; 380 ± 46 nM in the series on BE2-C neuroblastoma; 300 ± 58 nM in [3]; 190 ± 47 nM in [4]; 330 ± 66 nM with SJ-G2 glioblastoma; 100 ± 38 nM with Du145 prostate. Besides, the 50% growth inhibitory concentration (GI50) in the series with MIA pancreas was 200 ± 57 nM. The “MtMP Changes” value was determined as 321 ± 7 RFU with HT29 colon cells [1] (24 h, control 542 ± 4); 305 ± 5 RFU in the series on HT29 colon cells [1] (48 h, control 507 ± 11); 257 ± 6 RFU in the series on HT29 colon cells [1] (72 h, control 449 ± 10). The “ROS Production” value is given as 174 ± 2 RFU in the series with HT29 colon cells [5] (24 h), 172 ± 9 RFU in the series with HT29 colon cells [5] (48 h) and 176 ± 7 RFU with HT29 colon cells [5] (72 h). For the same compound, the “rate of tumour regression” value with prostate tumour is “comparable to cisplatin”. Also, the toxicity result with prostate tumour was “no toxicity was detected”. Also, in series [6], the “HDAC Inhibition at 72 h” value is 3733 ± 37 RFU.
